Laboratory results: US10710978B2, “STK4 inhibitors for treatment of hematologic malignancies” (Dana-Farber Cancer Institute, Inc., priority 2015, dated 2020)
Like-named read-outs stand apart in the source and are kept apart here.

Assays:
Assay in all cases: KiNativ assay
Type in all cases: binding
STLK3 = STLK3 (Homo sapiens (Human), UniProt Q9UEW8); settings: H929 live cell
Description: (§1) Biochemical IC50s of the compounds of the present disclosure against various kinases were measured in a KiNativ assay. Compounds were screened in duplicate at 10 μM in H929 live cell. IC50 was measured via Mass spectroscopy (MS).

PKN1 = PKN1 (Homo sapiens (Human), UniProt Q16512); settings: H929 live cell
Description: as §1

MAP2K3 = MAP2K3 (Homo sapiens (Human), UniProt P46734); settings: H929 live cell
Description: as §1

[1] = system: ZC1/HGK, ZC2/TNIK, ZC3/MINK; settings: H929 live cell
Description: as §1

MARK2 = MARK2 (Homo sapiens (Human), UniProt Q7KZI7); settings: H929 live cell
Description: as §1

MST1, MST2 = settings: H929 live cell
Description: as §1

RSK1 domain2 = RSK1 domain2 (Homo sapiens (Human), UniProt Q15418); settings: H929 live cell
Description: as §1

SRPK1 = SRPK1 (Homo sapiens (Human), UniProt Q96SB4); settings: H929 live cell
Chain of SRPK1 (Q96SB4 whole entry): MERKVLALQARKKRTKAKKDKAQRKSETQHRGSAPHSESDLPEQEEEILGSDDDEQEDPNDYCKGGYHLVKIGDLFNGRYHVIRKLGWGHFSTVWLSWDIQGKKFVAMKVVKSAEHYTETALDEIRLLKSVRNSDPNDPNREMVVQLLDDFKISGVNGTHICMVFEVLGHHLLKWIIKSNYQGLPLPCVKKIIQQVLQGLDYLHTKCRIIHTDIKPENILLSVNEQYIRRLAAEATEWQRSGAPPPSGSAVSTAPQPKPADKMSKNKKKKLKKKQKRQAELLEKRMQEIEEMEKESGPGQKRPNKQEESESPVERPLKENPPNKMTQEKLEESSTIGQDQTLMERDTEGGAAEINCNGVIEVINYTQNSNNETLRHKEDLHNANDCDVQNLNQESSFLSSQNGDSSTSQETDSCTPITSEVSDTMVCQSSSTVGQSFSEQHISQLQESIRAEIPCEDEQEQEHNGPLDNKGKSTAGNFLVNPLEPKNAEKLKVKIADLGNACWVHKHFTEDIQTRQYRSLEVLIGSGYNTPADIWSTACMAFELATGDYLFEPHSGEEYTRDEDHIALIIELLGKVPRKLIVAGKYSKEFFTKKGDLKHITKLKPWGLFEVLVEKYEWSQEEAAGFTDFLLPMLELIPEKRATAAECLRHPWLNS
Description: as §1

CDK7 = CDK7 (Homo sapiens (Human), UniProt P50613); settings: H929 live cell
Chain of CDK7 (P50613 whole entry): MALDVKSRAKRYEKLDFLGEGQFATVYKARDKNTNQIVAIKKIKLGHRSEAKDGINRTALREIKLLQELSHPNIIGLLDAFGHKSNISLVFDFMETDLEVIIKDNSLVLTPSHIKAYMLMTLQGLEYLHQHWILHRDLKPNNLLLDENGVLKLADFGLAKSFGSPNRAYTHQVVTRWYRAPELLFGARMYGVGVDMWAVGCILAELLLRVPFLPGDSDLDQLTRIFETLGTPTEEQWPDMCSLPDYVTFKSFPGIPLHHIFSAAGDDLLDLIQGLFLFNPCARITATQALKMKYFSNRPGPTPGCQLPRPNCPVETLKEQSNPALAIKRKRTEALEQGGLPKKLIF
Chain of CDK7 (P51946 whole entry partner): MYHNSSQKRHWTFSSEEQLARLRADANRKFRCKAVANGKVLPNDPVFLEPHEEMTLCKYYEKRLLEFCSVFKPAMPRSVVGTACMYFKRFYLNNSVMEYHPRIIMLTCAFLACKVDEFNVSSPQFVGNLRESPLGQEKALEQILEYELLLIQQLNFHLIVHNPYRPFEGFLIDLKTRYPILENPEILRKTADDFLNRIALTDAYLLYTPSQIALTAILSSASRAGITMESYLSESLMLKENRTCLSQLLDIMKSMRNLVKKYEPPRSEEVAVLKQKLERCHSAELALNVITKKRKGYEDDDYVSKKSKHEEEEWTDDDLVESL
Chain of CDK7 (P51948 whole entry partner): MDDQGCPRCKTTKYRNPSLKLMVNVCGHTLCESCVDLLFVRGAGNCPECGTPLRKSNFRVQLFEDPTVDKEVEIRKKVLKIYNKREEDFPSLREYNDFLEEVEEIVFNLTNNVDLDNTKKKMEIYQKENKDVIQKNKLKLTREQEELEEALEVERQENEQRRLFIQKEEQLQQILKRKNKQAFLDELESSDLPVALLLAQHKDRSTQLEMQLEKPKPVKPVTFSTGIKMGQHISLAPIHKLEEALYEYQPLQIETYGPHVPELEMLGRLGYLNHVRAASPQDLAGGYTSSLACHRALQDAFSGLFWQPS
Description: as §1

ILK = ILK (Homo sapiens (Human), UniProt Q13418); settings: H929 live cell
Chain of ILK (Q13418 whole entry): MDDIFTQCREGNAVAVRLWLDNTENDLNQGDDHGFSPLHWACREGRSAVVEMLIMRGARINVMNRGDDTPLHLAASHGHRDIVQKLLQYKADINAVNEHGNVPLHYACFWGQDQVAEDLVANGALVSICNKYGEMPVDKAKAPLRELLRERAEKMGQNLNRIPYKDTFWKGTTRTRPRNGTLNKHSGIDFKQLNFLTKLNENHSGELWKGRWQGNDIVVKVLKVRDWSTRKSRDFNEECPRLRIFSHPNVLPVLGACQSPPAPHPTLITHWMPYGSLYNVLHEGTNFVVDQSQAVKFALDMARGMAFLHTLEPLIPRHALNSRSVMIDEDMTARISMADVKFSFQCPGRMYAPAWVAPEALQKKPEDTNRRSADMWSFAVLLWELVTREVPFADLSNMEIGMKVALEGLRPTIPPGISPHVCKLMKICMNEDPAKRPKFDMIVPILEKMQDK
Description: as §1

MST1 = MST1 (Homo sapiens (Human), UniProt Q13043); settings: H929 live cell
Description: as §1

PAN3 = PAN3 (Homo sapiens (Human), UniProt Q58A45); settings: H929 live cell
Description: as §1

MST4, YSK1 = settings: H929 live cell
Description: as §1

CDK11, CDK8 = settings: H929 live cell
Description: as §1

PKD3 = PKD3 (Homo sapiens (Human), UniProt O94806); settings: H929 live cell
Description: as §1

RSK2 domain2 = RSK2 domain2 (Homo sapiens (Human), UniProt P51812); settings: H929 live cell
Description: as §1

LOK = LOK (Homo sapiens (Human), UniProt O94804); settings: H929 live cell
Description: as §1

CDK2 = CDK2 (Homo sapiens (Human), UniProt P24941); settings: H929 live cell
Description: as §1

MST4 = settings: H929 live cell
Description: as §1

LKB1 = LKB1 (Homo sapiens (Human), UniProt Q15831); settings: H929 live cell
Chain of LKB1 (Q15831 whole entry): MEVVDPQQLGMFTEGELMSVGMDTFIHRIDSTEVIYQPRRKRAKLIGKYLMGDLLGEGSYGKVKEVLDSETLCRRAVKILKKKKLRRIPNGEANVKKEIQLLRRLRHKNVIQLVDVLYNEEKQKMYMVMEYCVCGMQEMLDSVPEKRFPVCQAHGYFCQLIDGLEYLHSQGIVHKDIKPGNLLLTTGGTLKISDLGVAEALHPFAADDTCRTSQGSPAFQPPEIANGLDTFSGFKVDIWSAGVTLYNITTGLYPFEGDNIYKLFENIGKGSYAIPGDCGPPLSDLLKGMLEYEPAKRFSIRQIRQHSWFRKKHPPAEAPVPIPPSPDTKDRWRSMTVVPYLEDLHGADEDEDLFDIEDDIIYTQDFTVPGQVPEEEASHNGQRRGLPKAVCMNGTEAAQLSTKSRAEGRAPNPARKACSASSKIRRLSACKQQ
Description: as §1

NDR1 = NDR1 (Homo sapiens (Human), UniProt Q15208); settings: H929 live cell
Chain of NDR1 (Q15208 whole entry): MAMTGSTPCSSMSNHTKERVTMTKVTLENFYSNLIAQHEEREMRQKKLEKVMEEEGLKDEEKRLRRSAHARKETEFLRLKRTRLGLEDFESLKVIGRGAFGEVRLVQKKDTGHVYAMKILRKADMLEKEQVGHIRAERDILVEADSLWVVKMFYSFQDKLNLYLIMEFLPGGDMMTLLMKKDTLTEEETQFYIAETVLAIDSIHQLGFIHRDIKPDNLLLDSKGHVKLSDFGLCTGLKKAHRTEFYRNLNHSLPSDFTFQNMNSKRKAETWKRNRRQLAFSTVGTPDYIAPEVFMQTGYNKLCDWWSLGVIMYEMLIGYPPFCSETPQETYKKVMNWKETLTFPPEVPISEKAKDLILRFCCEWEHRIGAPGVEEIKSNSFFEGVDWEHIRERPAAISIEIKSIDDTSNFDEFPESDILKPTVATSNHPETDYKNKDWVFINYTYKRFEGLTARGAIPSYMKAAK
Description: as §1

PKCz = PKCz (Homo sapiens (Human), UniProt Q05513); settings: H929 live cell
Chain of PKCz (Q05513 whole entry): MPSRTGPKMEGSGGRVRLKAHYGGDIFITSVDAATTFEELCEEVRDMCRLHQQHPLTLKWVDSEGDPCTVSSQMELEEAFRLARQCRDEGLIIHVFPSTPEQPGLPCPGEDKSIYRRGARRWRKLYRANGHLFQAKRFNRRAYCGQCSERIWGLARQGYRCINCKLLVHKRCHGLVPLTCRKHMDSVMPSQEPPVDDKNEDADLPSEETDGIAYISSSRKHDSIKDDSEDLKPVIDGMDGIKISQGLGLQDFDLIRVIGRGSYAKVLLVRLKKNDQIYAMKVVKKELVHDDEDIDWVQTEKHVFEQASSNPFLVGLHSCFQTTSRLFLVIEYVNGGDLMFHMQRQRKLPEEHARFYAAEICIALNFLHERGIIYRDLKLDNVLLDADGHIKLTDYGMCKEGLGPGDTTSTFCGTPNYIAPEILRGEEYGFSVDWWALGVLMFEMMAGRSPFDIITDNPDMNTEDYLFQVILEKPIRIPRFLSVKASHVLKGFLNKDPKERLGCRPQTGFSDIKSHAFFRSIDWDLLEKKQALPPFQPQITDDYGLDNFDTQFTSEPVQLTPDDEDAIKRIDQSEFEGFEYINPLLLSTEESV
Description: as §1

PITSLRE = settings: H929 live cell
Description: as §1

PRPK = PRPK (Homo sapiens (Human), UniProt Q96S44); settings: H929 live cell
Chain of PRPK (Q96S44 whole entry): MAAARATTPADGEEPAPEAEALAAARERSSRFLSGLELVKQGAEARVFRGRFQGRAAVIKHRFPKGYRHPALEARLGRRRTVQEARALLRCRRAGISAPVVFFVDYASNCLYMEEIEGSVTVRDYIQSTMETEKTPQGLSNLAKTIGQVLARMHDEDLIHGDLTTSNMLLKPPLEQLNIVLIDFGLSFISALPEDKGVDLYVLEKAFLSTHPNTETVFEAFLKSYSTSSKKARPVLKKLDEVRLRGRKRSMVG
Description: as §1

JAK1 domain2 = JAK1 domain2 (Homo sapiens (Human), UniProt P23458); settings: H929 live cell
Description: as §1

ACK = ACK (Homo sapiens (Human), UniProt Q07912); settings: H929 live cell
Description: as §1

DGKH = DGKH (Homo sapiens (Human), UniProt Q86XP1); settings: H929 live cell, read-out: inhibition (10 μM)
Description: as §1

MAP3K5 = MAP3K5 (Homo sapiens (Human), UniProt Q99683); settings: H929 live cell
Description: as §1

PIP4K2C = PIP4K2C (Homo sapiens (Human), UniProt Q8TBX8); settings: H929 live cell
Chain of PIP4K2C (Q8TBX8 whole entry): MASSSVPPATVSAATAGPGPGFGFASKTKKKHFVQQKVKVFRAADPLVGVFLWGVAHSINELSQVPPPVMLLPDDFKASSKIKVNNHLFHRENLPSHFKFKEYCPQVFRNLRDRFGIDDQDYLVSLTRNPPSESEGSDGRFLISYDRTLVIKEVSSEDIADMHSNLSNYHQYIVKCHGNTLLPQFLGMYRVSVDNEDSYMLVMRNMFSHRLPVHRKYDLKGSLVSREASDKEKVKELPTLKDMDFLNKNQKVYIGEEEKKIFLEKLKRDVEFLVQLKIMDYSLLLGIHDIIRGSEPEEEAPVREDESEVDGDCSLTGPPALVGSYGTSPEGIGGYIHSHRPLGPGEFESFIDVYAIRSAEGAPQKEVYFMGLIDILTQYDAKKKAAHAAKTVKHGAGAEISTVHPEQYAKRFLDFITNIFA
Description: as §1

CSK = CSK (Homo sapiens (Human), UniProt P41240); settings: H929 live cell
Description: as §1

CaMK2d = CaMK2d (Homo sapiens (Human), UniProt Q13557); settings: H929 live cell
Chain of CaMK2d (Q13557 whole entry): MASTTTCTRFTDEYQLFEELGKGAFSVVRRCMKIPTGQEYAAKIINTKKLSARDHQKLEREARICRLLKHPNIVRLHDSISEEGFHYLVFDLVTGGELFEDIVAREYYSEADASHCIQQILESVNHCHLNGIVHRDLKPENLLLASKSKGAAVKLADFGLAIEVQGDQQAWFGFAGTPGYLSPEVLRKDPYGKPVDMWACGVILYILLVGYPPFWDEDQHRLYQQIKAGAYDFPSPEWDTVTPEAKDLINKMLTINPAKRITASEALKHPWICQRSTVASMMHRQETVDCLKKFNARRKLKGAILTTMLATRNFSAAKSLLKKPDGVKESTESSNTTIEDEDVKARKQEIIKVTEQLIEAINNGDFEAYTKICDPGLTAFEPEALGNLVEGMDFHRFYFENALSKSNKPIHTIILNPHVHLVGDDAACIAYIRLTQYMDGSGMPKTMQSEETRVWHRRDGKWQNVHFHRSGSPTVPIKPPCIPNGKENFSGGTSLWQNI
Description: as §1

eEF2K = eEF2K (Homo sapiens (Human), UniProt O00418); settings: H929 live cell
Description: as §1

MLK3 = MLK3 (Homo sapiens (Human), UniProt Q16584); settings: H929 live cell
Description: as §1

CaMK2g = CaMK2g (Homo sapiens (Human), UniProt Q13555); settings: H929 live cell
Description: as §1

Nc1ncc(-c2cccc([N+](=O)[O-])c2F)cc1-c1ccc2c(c1)CCNC2=O [Compound I-9, 6-(2-amino-5-(2-fluoro-3-nitrophenyl)pyridin-3-yl)-3,4-dihydroisoquinolin-1(2H)-one]
inhibition at 10 µM (STLK3; read-out: % inhibition (range)): 0% | inhibition at 10 µM (STLK3; read-out: inhibition (10 μM)): -22.9% | inhibition at 10 µM (PKN1; read-out: % inhibition (range)): 50 to 75% | inhibition at 10 µM (PKN1; read-out: inhibition (10 μM)): 56.9% | inhibition at 10 µM (MAP2K3; read-out: % inhibition (range)): 0% | inhibition at 10 µM (MAP2K3; read-out: inhibition (10 μM)): -34.2% | % inhibition (range) ([1]; 10 μM): >90% | inhibition (10 μM) [1]: 96.7% | inhibition at 10 µM (MARK2; read-out: % inhibition (range)): 50 to 75% | inhibition at 10 µM (MARK2; read-out: inhibition (10 μM)): 63.5% | % inhibition (range) (MST1, MST2; 10 μM): >90% | inhibition (10 μM) (MST1, MST2): 99.0% | inhibition at 10 µM (RSK1 domain2; read-out: % inhibition (range)): 0% | inhibition at 10 µM (RSK1 domain2; read-out: inhibition (10 μM)): 1% | inhibition at 10 µM (SRPK1; read-out: % inhibition (range)): 0% | inhibition at 10 µM (SRPK1; read-out: inhibition (10 μM)): 32.8% | inhibition at 10 µM (CDK7; read-out: % inhibition (range)): 75 to 90% | inhibition at 10 µM (CDK7; read-out: inhibition (10 μM)): 78.2% | inhibition at 10 µM (ILK; read-out: % inhibition (range)): 0% | inhibition at 10 µM (ILK; read-out: inhibition (10 μM)): -19% | inhibition at 10 µM (MST1; read-out: % inhibition (range)): > 90% | inhibition at 10 µM (MST1; read-out: inhibition (10 μM)): 95.4% | inhibition at 10 µM (PAN3; read-out: % inhibition (range)): 0% | inhibition at 10 µM (PAN3; read-out: inhibition (10 μM)): -7.1% | % inhibition (range) (MST4, YSK1; 10 μM): 0.0% | inhibition (10 μM) (MST4, YSK1): 33.0% | inhibition (10 μM) (CDK11, CDK8): 35.5% | inhibition at 10 µM (PKD3; read-out: % inhibition (range)): 50 to 75% | inhibition at 10 µM (PKD3; read-out: inhibition (10 μM)): 74.2% | inhibition at 10 µM (RSK2 domain2; read-out: % inhibition (range)): 0% | inhibition at 10 µM (RSK2 domain2; read-out: inhibition (10 μM)): -23.2% | inhibition at 10 µM (LOK; read-out: % inhibition (range)): > 90% | inhibition at 10 µM (LOK; read-out: inhibition (10 μM)): 98.5% | inhibition at 10 µM (CDK2; read-out: % inhibition (range)): 50 to 75% | inhibition at 10 µM (CDK2; read-out: inhibition (10 μM)): 68.5% | inhibition (10 μM) (MST4): 47.0% | inhibition at 10 µM (LKB1; read-out: % inhibition (range)): 0% | inhibition at 10 µM (LKB1; read-out: inhibition (10 μM)): 4.5% | inhibition at 10 µM (NDR1; read-out: % inhibition (range)): 0% | inhibition at 10 µM (NDR1; read-out: inhibition (10 μM)): 3.5% | inhibition at 10 µM (PKCz; read-out: % inhibition (range)): 0% | inhibition at 10 µM (PKCz; read-out: inhibition (10 μM)): 27% | % inhibition (range) (PITSLRE; 10 μM): 35-50% | inhibition (10 μM) (PITSLRE): 38.9% | inhibition at 10 µM (PRPK; read-out: % inhibition (range)): 0% | inhibition at 10 µM (PRPK; read-out: inhibition (10 μM)): -5% | inhibition at 10 µM (JAK1 domain2; read-out: % inhibition (range)): 0% | inhibition at 10 µM (JAK1 domain2; read-out: inhibition (10 μM)): -4.9% | inhibition at 10 µM (ACK; read-out: % inhibition (range)): 0% | inhibition at 10 µM (ACK; read-out: inhibition (10 μM)): -17.3% | inhibition at 10 µM (DGKH): 44.2% | inhibition at 10 µM (MAP3K5; read-out: % inhibition (range)): 0% | inhibition at 10 µM (MAP3K5; read-out: inhibition (10 μM)): 30.6% | inhibition at 10 µM (PIP4K2C; read-out: % inhibition (range)): 50 to 75% | inhibition at 10 µM (PIP4K2C; read-out: inhibition (10 μM)): 65.7% | inhibition at 10 µM (CSK; read-out: % inhibition (range)): 0% | inhibition at 10 µM (CSK; read-out: inhibition (10 μM)): -4.5% | inhibition at 10 µM (CaMK2d; read-out: % inhibition (range)): 0% | inhibition at 10 µM (CaMK2d; read-out: inhibition (10 μM)): -5.7% | inhibition at 10 µM (eEF2K; read-out: % inhibition (range)): 0% | inhibition at 10 µM (eEF2K; read-out: inhibition (10 μM)): -94.7% | inhibition at 10 µM (MLK3; read-out: % inhibition (range)): 50 to 75% | inhibition at 10 µM (MLK3; read-out: inhibition (10 μM)): 62.9% | inhibition at 10 µM (CaMK2g; read-out: % inhibition (range)): 0% | inhibition at 10 µM (CaMK2g; read-out: inhibition (10 μM)): -23%
